Article PMC2644305 (Nature chemical biology, 2009)

Target: FACL19 (Mycobacterium tuberculosis, UniProt P9WQ51)

SMILES	KM
CC(C)(COP(=O)(O)OP(=O)(O)OC[C@H]1O[C@@H](n2cnc3c(N)ncnc32)[C@H](O)[C@@H]1OP(=O)(O)O)[C@@H](O)C(=O)NCCC(=O)NCCS [compound 1, CoASH]	Kinetic analysis of CoA formation by wild type FACL19 and FACL19i proteins
Nc1ncnc2c1ncn2[C@@H]1O[C@H](COP(=O)(O)OP(=O)(O)OP(=O)(O)O)[C@@H](O)[C@H]1O [compound 3, ATP]	no significant change in KM was observed for ATP
